# According to patent US10023836B2, “Medium for yeasts” (YAMAGUCHI UNIVERSITY, priority 2012, dated 2018):
# Key:
# [1] = test system: Saccharomyces cerevisiae RAK3599 strain; experiment: SynAA culture medium: elimination of single components and inorganic ion concentration; type: cell-based; details: for essentiality for increasing proliferation: one component of the vitamin mix eliminated from SynAA culture medium
# Method: (§1) In a case where no special provisions are made, a procedure for a cultivation experiment using the culture medium to be investigated for proliferation was such that a yeast undergoing investigation was pre-cultured in a YPD liquid culture medium at 28° C. for 24 hours, after which the yeast was adjusted such that OD600=20. […] In addition, OD600 was measured every 15 minutes by a spectrophotometer (Cell density meter co8000, WPA). Hereafter, data is represented by graphs for a case using the automatic spectrophotometer; however, these graphs are primarily used to compare the slope of logarithmic growth phase proliferation curves for each culture medium, and because OD600 is measured without dilution, values where OD600=3 to 3.5 or more may be incorrect.
# Culture mediums were prepared in which one component each of the components configuring the inorganic ion mix was eliminated from the SynAA culture medium, and OD600 was measured. […] Thereafter, an investigation specifically of inorganic ion concentration was conducted. […] An investigation was conducted using RAK3599 strain (hereafter, simply referred to as “RAK3599 strain”), which is a strain of Saccharomyces cerevisiae not having a particular nutritional requirement. Where no subsequent special provisions were made, proliferation was investigated by performing roller tube culture for an appropriate amount of time at 28° C. and measuring OD600.
# MgSO4 concentration in the SynAA culture mediums was adjusted to 0%, 0.0001%, 0.001%, 0.01%, 0.1%, and 1%, respectively, and proliferation of the RAK3599 strain was investigated. […] Next, MgCl2 concentration in the SynAA culture mediums was adjusted to 0.001%, 0.01%, 0.1%, and 1%, respectively, and proliferation of the RAK3599 strain was investigated.
# A culture medium was prepared in which one component each of the components configuring the vitamin mix was eliminated from the SynAA culture medium, with the SynAA culture medium as the control, and proliferation of the RAK3599 strain was investigated.
# RAK3599 strain [2] = experiment: Vitamin and FeCl3 concentration in AKD′ culture medium (FIGS. 22 to 28); type: cell-based, Saccharomyces cerevisiae
# Method: as §1
# Pyridoxine concentration in the AKD′ culture medium was adjusted to 0, 0.004, 0.04, 0.4, 4, and 40 μg/mL, respectively, and proliferation of the RAK3599 strain was investigated.
# Pantothenic acid concentration in the AKD′ culture medium was adjusted to 0, 0.004, 0.04, 0.4, 4, and 40 μg/mL, respectively, and proliferation of the RAK3599 strain was investigated.
# Thiamine concentration in the AKD′ culture medium was adjusted to 0, 0.004, 0.04, 0.4, 4, and 40 μg/mL, respectively, and proliferation of the RAK3599 strain was investigated.
# Nicotinic acid concentration in the AKD′ culture medium was adjusted to 0, 0.004, 0.04, 0.4, 4, and 40 μg/mL, respectively, and proliferation of the RAK3599 strain was investigated.
# Myo-inositol concentration in the AKD′ culture medium was adjusted to 0, 0.02 μg/mL, 0.2 μg/mL, 2 μg/mL, 20 μg/mL, and 200 μg/mL, respectively, and proliferation of the RAK 3599 strain was investigated.
# FeCl3 concentration in the AKD′ culture medium was adjusted to 0, 0.002, 0.02, 0.2, 2, and 20 μg/mL, respectively, and proliferation of the RAK3599 strain was investigated.
# RAK3599 strain [3] = experiment: Investigation with AID and aY-AID culture medium (FIGS. 29 to 39); type: cell-based, Saccharomyces cerevisiae; details: for effect on proliferation when added at high concentrations: up to 1% or up to 0.2500%; for preferred concentration / content: AID or aY-AID culture medium
# Method: As shown in the following, an investigation was conducted into concentrations of each amino acid and a substitution potential of pantothenic acid for the amino acid in the AID culture medium. A suitable YPD culture medium was used as a control.
# Next, the amino acids asparagine, isoleucine, phenylalanine, and valine were each adjusted to a culture medium additive concentration of […], 0.0312%, 0.0625%, 0.1250%, and 0.2500%, and OD600 was measured after 24 hours.
# Isoleucine concentration in the aY-AID culture medium was adjusted to 0, 0.01 mg/mL, 0.1 mg/mL, 0.5 mg/mL, and 1 mg/mL, respectively, and proliferation of the RAK3599 strain was investigated.
# Phenylalanine concentration in the aY-AID culture medium was adjusted to 0, 0.01, 0.1, 0.5, and 1 mg/mL, respectively, and proliferation of the RAK3599 strain was investigated.
# Valine concentration in the aY-AID culture medium was adjusted to 0, 0.01, 0.1, 0.5, and 1 mg/mL, respectively, and proliferation of the RAK3599 strain was investigated.
# Serine concentration in the AID culture medium was adjusted to 0, 0.01 mg/mL, 0.1 mg/mL, 0.5 mg/mL, and 1 mg/mL, respectively, and proliferation of the RAK3599 strain was investigated.
# Threonine concentration in the AID culture medium was adjusted to 0, 0.01, 0.1, 0.5, and 1 mg/mL, respectively, and proliferation of the RAK3599 strain was investigated.
# Asparagine concentration in the AID culture medium was adjusted to 0, 0.01, 0.1, 0.5, and 1 mg/mL, respectively, and proliferation of the RAK3599 strain was investigated.
# An investigation was conducted into vitamins contained in the AID culture medium. […]
# [4] = aY-AID culture medium, concentration of the substance 0
# [5] = aY-AID culture medium, concentration of the substance 0.01 mg/mL
# [6] = aY-AID culture medium, concentration of the substance 0.1 mg/mL
# [7] = aY-AID culture medium, concentration of the substance 0.5 mg/mL
# [8] = aY-AID culture medium, concentration of the substance 1 mg/mL
smiles,measurement,setting,value
"[Cl-].[K+] [KCl, potassium chloride]",proliferation,[1]; 0.1% added after 20 hours to SynAA culture medium with NaH2PO4 instead of KH2PO4,proliferation began
"O=P([O-])(O)O.[K+] [KH2PO4, potassium dihydrogen phosphate]",proliferation when the component is not added,[1],extremely low proliferation
"O[C@H]1[C@H](O)[C@@H](O)[C@H](O)[C@@H](O)[C@H]1O [inositol, myo-inositol]",proliferation versus inositol content,"RAK3599 strain [2]; AKD′ culture medium, myo-inositol 0 to 200 μg/mL",Proliferation increased in proportion to an increase in inositol content
same,proliferation compared with AKD′,RAK3599 strain [2]; inositol added at 10%,below that of AKD′
"C[C@H](N)C(=O)O [Alanine, L-Alanine]",effect on proliferation when added at high concentrations,RAK3599 strain [3]; AID culture medium,a positive influence was imparted to proliferation
same,content at which the slope of the proliferation curve is greatest,RAK3599 strain [3]; aY-AID culture medium,around 1 mg/mL
same,OD600 after 24 hours,"RAK3599 strain [3]; aY-AID culture medium, alanine 0 mg/mL",17
same,OD600 after 24 hours,"RAK3599 strain [3]; aY-AID culture medium, alanine 0.1 mg/mL",18
same,OD600 after 24 hours,"RAK3599 strain [3]; aY-AID culture medium, alanine 1 mg/mL",18
same,OD600 after 24 hours,"RAK3599 strain [3]; aY-AID culture medium, alanine 5 mg/mL",17
same,OD600 after 24 hours,"RAK3599 strain [3]; aY-AID culture medium, alanine 10 mg/mL",18
OB(O)O [boric acid],essentiality for increasing proliferation,[1],not be essential components
Nc1nc2ncc(CNc3ccc(C(=O)N[C@@H](CCC(=O)O)C(=O)O)cc3)nc2c(=O)[nH]1 [folic acid],essentiality for increasing proliferation,[1],not be essential components
"CC(C)[C@H](N)C(=O)O [Valine, L-VALINE]",effect on proliferation when added at high concentrations,RAK3599 strain [3]; AID culture medium,a positive influence was imparted to proliferation
same,preferred concentration / content,RAK3599 strain [3],around 1 g/L
same,OD600 after 24 hours,RAK3599 strain [3]; [4],16
same,OD600 after 24 hours,RAK3599 strain [3]; [5],15
same,OD600 after 24 hours,RAK3599 strain [3]; [6],15
same,OD600 after 24 hours,RAK3599 strain [3]; [7],16
same,OD600 after 24 hours,RAK3599 strain [3]; [8],16
Cc1cc2nc3c(=O)[nH]c(=O)nc-3n(C[C@H](O)[C@H](O)[C@H](O)CO)c2cc1C [riboflavin],essentiality for increasing proliferation,[1],not be essential components
O=P([O-])(O)O.[Na+] [NaH2PO4],proliferation,"[1]; 0.1% added to SynAA culture medium instead of KH2PO4, after 20 hours",proliferation had not occurred
"CC(=O)N[C@@H](Cc1ccc(O)cc1)C(=O)O [acetyl tyrosine, N-acetyl tyrosine]",OD600 after 24 hours,"RAK3599 strain [3]; AID culture medium, acetyl tyrosine 0 mg/mL",13
same,OD600 after 24 hours,"RAK3599 strain [3]; AID culture medium, acetyl tyrosine 0.01 mg/mL",14
same,OD600 after 24 hours,"RAK3599 strain [3]; AID culture medium, acetyl tyrosine 0.1 mg/mL",15
same,OD600 after 24 hours,"RAK3599 strain [3]; AID culture medium, acetyl tyrosine 0.5 mg/mL",14
same,OD600 after 24 hours,"RAK3599 strain [3]; AID culture medium, acetyl tyrosine 1 mg/mL",15
same,OD600 after 24 hours,"RAK3599 strain [3]; AID culture medium, acetyl tyrosine 2 mg/mL",18
same,preferred concentration / content,RAK3599 strain [3],about 1 g/L
"NC(=O)C[C@H](N)C(=O)O.O [Asparagine, L-Asparagine monohydrate]",OD600 after 24 hours,"RAK3599 strain [3]; AID culture medium, asparagine 0 mg/mL",15
same,OD600 after 24 hours,"RAK3599 strain [3]; AID culture medium, asparagine 0.01 mg/mL",16
same,OD600 after 24 hours,"RAK3599 strain [3]; AID culture medium, asparagine 0.1 mg/mL",16
same,OD600 after 24 hours,"RAK3599 strain [3]; AID culture medium, asparagine 0.5 mg/mL",17
same,OD600 after 24 hours,"RAK3599 strain [3]; AID culture medium, asparagine 1 mg/mL",16
same,effect on proliferation when added at high concentrations,RAK3599 strain [3]; AID culture medium,proliferation was confirmed to be inhibited
same,preferred concentration / content,RAK3599 strain [3],around 0.5 g/L
"[Cl][Fe]([Cl])[Cl] [FeCl3, Anhydrous ferric (III) chloride]",preferred concentration,RAK3599 strain [2]; AKD′ culture medium,around 4000 μg/L
same,OD600 after 24 hours,"RAK3599 strain [2]; AKD′ culture medium, FeCl3 0 μg/mL",10
same,OD600 after 24 hours,"RAK3599 strain [2]; AKD′ culture medium, FeCl3 0.002 μg/mL",9
same,OD600 after 24 hours,"RAK3599 strain [2]; AKD′ culture medium, FeCl3 0.02 μg/mL",11
same,OD600 after 24 hours,"RAK3599 strain [2]; AKD′ culture medium, FeCl3 0.2 μg/mL",10
same,OD600 after 24 hours,"RAK3599 strain [2]; AKD′ culture medium, FeCl3 2 μg/mL",13
same,OD600 after 24 hours,"RAK3599 strain [2]; AKD′ culture medium, FeCl3 20 μg/mL",14
"N[C@@H](Cc1ccccc1)C(=O)O [Phenylalanine, L-Phenylalanine]",effect on proliferation when added at high concentrations,RAK3599 strain [3]; AID culture medium,a positive influence was imparted to proliferation
same,preferred concentration / content,RAK3599 strain [3],around 1 g/L
same,OD600 after 24 hours,RAK3599 strain [3]; [4],17
same,OD600 after 24 hours,RAK3599 strain [3]; [5],17
same,OD600 after 24 hours,RAK3599 strain [3]; [6],19
same,OD600 after 24 hours,RAK3599 strain [3]; [7],19
same,OD600 after 24 hours,RAK3599 strain [3]; [8],19
"N[C@@H](CO)C(=O)O [Serine, L-Serine]",content at which proliferation particularly increased,RAK3599 strain [3]; AID culture medium,around 0.5 mg/mL
same,effect on proliferation when added at high concentrations,RAK3599 strain [3]; AID culture medium,a positive influence was imparted to proliferation
same,preferred concentration / content,RAK3599 strain [3],around 0.5 g/L
NCCC(=O)O [β-alanine],substitution potential of pantothenic acid,RAK3599 strain [3]; AID culture medium (FIG. 39A),confirmed to be substituted with pantothenic acid
same,concentration capable of substitution with pantothenic acid,RAK3599 strain [3]; AID culture medium (FIG. 39B),≥ 0.4 µg/mL
"CC[C@H](C)[C@H](N)C(=O)O [Isoleucine, L-Isoleucine]",effect on proliferation when added at high concentrations,RAK3599 strain [3]; AID culture medium,a positive influence was imparted to proliferation
same,preferred concentration / content,RAK3599 strain [3],around 1 g/L
same,OD600 after 24 hours,RAK3599 strain [3]; [4],16
same,OD600 after 24 hours,RAK3599 strain [3]; [5],17
same,OD600 after 24 hours,RAK3599 strain [3]; [6],16
same,OD600 after 24 hours,RAK3599 strain [3]; [7],17
same,OD600 after 24 hours,RAK3599 strain [3]; [8],19
Nc1ccc(C(=O)O)cc1 [para-aminobenzoic acid],effect on proliferation,RAK3599 strain [3]; vitamins contained in the AID culture medium (FIG. 38),no effect to particularly increase proliferation
